According to US8476251B2, “Skin care compositions comprising substituted diamines” (Conopco, Inc., priority 2010, dated 2013):

Test system: Melanoderm tissue equivalent model MEL-300 containing melanocytes obtained from dark skin individuals
Experiment: Melanoderm tissue equivalent model MEL-300, total melanin content (inhibition of melanogenesis)
Type: cell-based
Details: 14 days; for inhibition at 10 µM: Melanocyte, 336 h, 10 μM in maintenance medium, total melanin content vs DMSO vehicle control, read-out: Melanoderm (% Reduction at 10 μM); for melanogenesis inhibition (in words): Melanoderm MEL-300, 10 μM
Experimental: Melanoderm tissue equivalent model MEL-300 (MatTek: Ashland, Mass.) containing melanocytes obtained from dark skin individuals were cultured as per supplier instructions. Components were added to the maintenance medium phase (no topical treatments) at a final concentration of 10 μM for 14 days at which time the experiment was terminated and the tissues assessed for melanin content. Medium and treatments were changed three times per week. DMSO was utilized as the vehicle control and all treatments were performed at least in duplicate.
For quantification of total melanin, each Melanoderm was placed into an individual Eppendorf tube (2 mL) into which 250 μL of Solvable™ tissue solubilizer (Packard Bioscience Co., Cat# 6NE9100) was added. Each tube was vortexed and incubated at 60° C. for 18 hours. Each sample was then centrifuged (5-minutes at 13,000 RPMs) to remove any particulates. 100 or 200 μL of supernatant were transferred to a 96 well microtiter plate and the absorbance read at 490 nm. Total melanin content was calculated from a standard curve using synthetic melanin (Sigma Cat# M8631). Data was analyzed for significance using the t-test in Microsoft Excel to generate p-values (p-values less than 0.01 represent 99% confidence, p values of 0.05 represent 95% confidence both of which are statistically significant).

Row | Compound | inhibition at 10 µM [%] | melanogenesis inhibition (in words)
1 | CN(C)CCN(Cc1ccccc1)CC1CCCCC1 [Compound 3a, N-benzyl-N-(cyclohexylmethyl)-N′,N′-dimethylethane-1,2-diamine] | 51.3 | effective at melanogenesis inhibition
2 | CN(C)CCN(Cc1ccccc1)Cc1ccccc1 [Compound 3b, N,N-dibenzyl-N′,N′-dimethylethane-1,2-diamine] | 39.5 | effective at melanogenesis inhibition
3 | CN(C)CCN(CCc1ccccc1)Cc1ccccc1 [Compound 3c, N-benzyl-N′,N′-dimethyl-N-(2-phenylethyl)ethane-1,2-diamine] | 51.8 | 
4 | CN(C)CCN(Cc1ccccc1)Cc1ccc2ccccc2c1 [Compound 3d, N-benzyl-N′,N′-dimethyl-N-(naphthalen-2-ylmethyl)ethane-1,2-diamine] | 56 | 
5 | Cc1ccccc1CN(CCN(C)C)Cc1ccccc1 [Compound 3e, N-benzyl-N′,N′-dimethyl-N-(2-methylbenzyl)ethane-1,2-diamine] | 46.6 | 
6 | Cc1cccc(CN(CCN(C)C)Cc2ccccc2)c1 [Compound 3f, N-benzyl-N′,N′-dimethyl-N-(3-methylbenzyl)ethane-1,2-diamine] | 51.6 | 
7 | Cc1ccc(CN(CCN(C)C)Cc2ccccc2)cc1 [Compound 3g, N-benzyl-N′,N′-dimethyl-N-(4-methylbenzyl)ethane-1,2-diamine] | 53.2 | 
8 | COc1ccc(CN(CCN(C)C)Cc2ccccc2)cc1 [Compound 3h, N-benzyl-N-(4-methoxybenzyl)-N′,N′-dimethylethane-1,2-diamine] | 48.8 | 
9 | CN(C)CCN(Cc1ccccc1)Cc1ccc(F)cc1 [Compound 3i, N-benzyl-N-(4-fluorobenzyl)-N′,N′-dimethylethane-1,2-diamine] | 47.8 | 
10 | CCN(CCN(C)C)Cc1ccccc1 [Compound 3j, N-benzyl-N-ethyl-N′,N′-dimethylethane-1,2-diamine] | -0.1 | is not
11 | CN(C)CCN(CC1CCCCC1)CC1CCCCC1 [Compound 5a, N,N-bis(cyclohexylmethyl)-N′,N′-dimethylethane-1,2-diamine] | 42.5 | 
12 | COc1ccc(CN(CCN(C)C)Cc2ccc(OC)cc2)cc1 [Compound 5b, N,N-bis(4-methoxybenzyl)-N′,N′-dimethylethane-1,2-diamine] | 48.7 | 
13 | CN(C)CCN(Cc1ccc(F)cc1)Cc1ccc(F)cc1 [Compound 5c, N,N-bis(4-fluorobenzyl)-N′,N′-dimethylethane-1,2-diamine] | 49.3 | 
14 | CCN(CC)CCN(Cc1ccccc1)Cc1ccccc1 [Compound 5d, N,N-dibenzyl-N′,N′-diethylethane-1,2-diamine] | 45.6 | 
15 | c1ccc(CN(CCN2CCCC2)Cc2ccccc2)cc1 [Compound 5e, N,N-dibenzyl-2-(pyrrolidin-1-yl)ethanamine] | 40.6 | 
16 | CN(C)CCCN(Cc1ccccc1)Cc1ccccc1 [Compound 5f, N,N-dibenzyl-N′,N′-dimethylpropane-1,3-diamine] | 50 | 
17 | CN(C)CCN(Cc1ccccc1)C(=O)c1ccccc1 [Compound 7, N-benzyl-N-[2-(dimethylamino)ethyl]benzamide] | 4.4 | is not
18 | CC(c1ccccc1)N(CCN(C)C)Cc1ccccc1 (stereo not shown) [Compound 11, N-benzyl-N′,N′-dimethyl-N-(1-phenylethyl)ethane-1,2-diamine] | 47.8 | 
